The values that follow come from publication PMC11864979, “First-in-class ultralong-target-residence-time p38α inhibitors as a mitosis-targeted therapy for colorectal cancer” (Nature Cancer, 2025).

SMILES strings stand for the structures. Like-named read-outs stand apart in the source and are kept apart here.

Common to all, as to assay: selectivity profiling in a panel of 340 wild-type kinases (Reaction Biology Europe)
What all share (type): binding

Experiment [1] deals with T1, 340 wild-type kinases (Homo sapiens, UniProt P78362).
T1 construct: purchased Reaction Biology Europe

Experiment [2] concerns the target T2, 340 wild-type kinases (Homo sapiens, UniProt Q09013).
T2 construct: purchased Reaction Biology Europe
T2 sequence (Q09013 1-629): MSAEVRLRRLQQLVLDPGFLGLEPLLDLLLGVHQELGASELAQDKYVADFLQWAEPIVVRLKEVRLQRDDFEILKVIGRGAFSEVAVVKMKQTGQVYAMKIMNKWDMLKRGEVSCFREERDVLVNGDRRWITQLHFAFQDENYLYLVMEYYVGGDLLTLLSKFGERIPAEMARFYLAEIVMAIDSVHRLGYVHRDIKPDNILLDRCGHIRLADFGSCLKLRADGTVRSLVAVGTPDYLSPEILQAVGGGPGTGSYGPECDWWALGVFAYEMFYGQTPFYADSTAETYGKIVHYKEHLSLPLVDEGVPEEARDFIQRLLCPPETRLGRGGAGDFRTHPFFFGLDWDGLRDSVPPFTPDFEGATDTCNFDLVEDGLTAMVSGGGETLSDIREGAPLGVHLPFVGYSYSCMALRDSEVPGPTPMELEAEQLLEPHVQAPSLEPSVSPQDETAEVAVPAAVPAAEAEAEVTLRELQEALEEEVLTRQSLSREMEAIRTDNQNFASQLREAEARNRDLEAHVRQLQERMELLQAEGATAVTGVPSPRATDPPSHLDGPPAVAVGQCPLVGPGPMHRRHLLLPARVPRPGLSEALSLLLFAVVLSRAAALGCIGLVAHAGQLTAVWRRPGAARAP

Experiment [3] concerns the target T3, 340 wild-type kinases (Homo sapiens, UniProt Q96GX5).
T3 construct: purchased Reaction Biology Europe
T3 sequence (Q96GX5 1-879): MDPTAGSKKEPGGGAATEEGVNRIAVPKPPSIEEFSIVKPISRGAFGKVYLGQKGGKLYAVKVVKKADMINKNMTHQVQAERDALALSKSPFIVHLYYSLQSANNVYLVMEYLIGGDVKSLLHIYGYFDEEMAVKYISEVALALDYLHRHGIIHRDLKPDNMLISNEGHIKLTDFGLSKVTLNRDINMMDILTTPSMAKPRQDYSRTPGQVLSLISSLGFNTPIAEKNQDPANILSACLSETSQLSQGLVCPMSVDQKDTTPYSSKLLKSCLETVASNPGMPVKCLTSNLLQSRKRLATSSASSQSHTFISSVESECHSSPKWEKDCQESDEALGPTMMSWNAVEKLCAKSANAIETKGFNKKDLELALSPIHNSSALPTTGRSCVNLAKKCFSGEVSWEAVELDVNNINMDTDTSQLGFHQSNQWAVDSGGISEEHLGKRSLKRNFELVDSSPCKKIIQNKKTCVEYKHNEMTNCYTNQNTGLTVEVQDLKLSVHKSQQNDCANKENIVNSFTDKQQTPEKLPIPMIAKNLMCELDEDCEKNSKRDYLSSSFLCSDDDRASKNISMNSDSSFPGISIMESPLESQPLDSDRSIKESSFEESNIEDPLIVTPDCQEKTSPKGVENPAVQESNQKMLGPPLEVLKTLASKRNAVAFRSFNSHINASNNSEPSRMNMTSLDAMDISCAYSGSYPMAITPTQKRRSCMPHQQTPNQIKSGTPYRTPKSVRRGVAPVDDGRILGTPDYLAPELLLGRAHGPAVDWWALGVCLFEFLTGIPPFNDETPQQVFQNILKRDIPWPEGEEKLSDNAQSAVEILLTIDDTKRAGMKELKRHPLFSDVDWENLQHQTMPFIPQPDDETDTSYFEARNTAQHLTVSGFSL

T1 sequence (P78362 whole entry): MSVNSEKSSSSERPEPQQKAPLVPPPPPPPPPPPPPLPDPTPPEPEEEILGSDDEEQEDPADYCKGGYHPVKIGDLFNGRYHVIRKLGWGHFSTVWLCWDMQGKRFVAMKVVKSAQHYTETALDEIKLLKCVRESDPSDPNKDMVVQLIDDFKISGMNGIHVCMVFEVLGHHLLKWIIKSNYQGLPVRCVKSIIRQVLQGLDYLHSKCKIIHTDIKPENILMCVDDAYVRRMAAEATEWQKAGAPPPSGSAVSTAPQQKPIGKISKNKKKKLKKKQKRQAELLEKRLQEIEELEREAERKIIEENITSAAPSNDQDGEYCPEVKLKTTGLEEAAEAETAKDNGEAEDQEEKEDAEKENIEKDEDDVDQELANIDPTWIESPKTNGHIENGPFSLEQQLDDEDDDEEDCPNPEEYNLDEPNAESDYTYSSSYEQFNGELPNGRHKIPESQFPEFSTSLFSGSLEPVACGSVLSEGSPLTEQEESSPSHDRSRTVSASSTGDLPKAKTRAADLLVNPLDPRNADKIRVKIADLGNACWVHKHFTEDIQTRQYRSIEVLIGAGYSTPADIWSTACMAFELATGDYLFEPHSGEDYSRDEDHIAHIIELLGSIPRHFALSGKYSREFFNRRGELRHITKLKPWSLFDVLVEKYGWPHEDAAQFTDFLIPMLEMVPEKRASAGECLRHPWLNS

Turning to `CNC(=O)c1ccc2c(c1)C(=O)c1ccc(Nc3ccc(F)c(NC(=O)C4CC4)c3)cc1CC2` [Compound 2015], the remaining activity at 0.2 µM on 340 wild-type kinases [1] (0.2 µM 2015, read-out: SRPK2 residual activity) worked out at 89.5%; on 340 wild-type kinases [1] (SRPK2, 0.2 µM, read-out: residual activity), 89.5%; on 340 wild-type kinases [2] (0.2 µM 2015, read-out: DMPK residual activity), 82.9%; at 340 wild-type kinases [2] (DMPK, 0.2 µM, read-out: residual activity), 82.9%; on 340 wild-type kinases [3] (0.2 µM 2015, read-out: MASTL residual activity), 101%; on 340 wild-type kinases [3] (MASTL, 0.2 µM, read-out: residual activity), 101%. The remaining activity at 1 µM at 340 wild-type kinases [1] (1 µM 2015, read-out: SRPK2 residual activity) amounted to 91.2%; on 340 wild-type kinases [1] (SRPK2, 1 µM, read-out: residual activity), 91.2%; at 340 wild-type kinases [2] (1 µM 2015, read-out: DMPK residual activity), 90.2%; at 340 wild-type kinases [2] (DMPK, 1 µM, read-out: residual activity), 90.2%; on 340 wild-type kinases [3] (1 µM 2015, read-out: MASTL residual activity), 93.3%; on 340 wild-type kinases [3] (MASTL, 1 µM, read-out: residual activity), 93.3%.
